Publication PMC9181852, “In Vivo and In Vitro Biological Evaluation and Molecular Docking Studies of Compounds Isolated from Micromeria biflora (Buch. Ham. ex D.Don) Benth” (Molecules, 2022)

How the values were obtained:
[1] = Inclined plane muscle relaxation model; format: in vivo, mice (Balb/c)
Description: (§1) Healthy mice (Balb/c) with weight ranging from 20 to 22 g and ages 9 to 10 weeks were used in this screening model. The grown animals were provided with standard laboratory conditions such as standard food and water ad libitum. The in vivo biological screening test was performed at the Department of Veterinary Medicine, College of Agriculture and Veterinary Medicine, Qassim University Buraydah, Saudi Arabia, as well as Swabi University, KP, Pakistan, according to published procedures.
An inclined plane screening procedure was adapted to identify the muscle relaxation effects of salicylalazine isolated from M. biflora according to a reported procedure. The inclined plane used in screening contained two plywood boards, and these boards were connected, where one board was at 60 0 from the base while the other one was aligned from the base. Various groups of animals were distributed into several groups; each group comprised six animals (n = 6). Animals in each group were administered water (10 mL/kg), standard drug (diazepam, 1 mg/kg), and salicylalazine at different doses of 2.5, 5, 10, 15, and 20 mg/kg, i.p. After various time intervals, such as 30, 60, and 90 min post-administration, animals were allowed on the higher part of the inclined plane for 30 s to drop or hang.

[2] = Histamine-induced paw edema; format: in vivo, mice
Description: as §1
The anti-inflammatory potential of salicylalazine isolated from M. biflora was determined as per our recently published method. The induction of inflammation was completed by administering 0.1 mL histamine (0.5%) to the animal’s sub plantar region. The volume of the paw was recorded 1–5 h after the administration of the inflammatory drug. Then, every group of animals was divided and pretreated orally with salicylalazine (15 and 20 mg/kg) for 1 h before making paw edema. The effect of the drug was related to that of loratadine (standard).

[3] = system: LCMK-2 monkey kidney cells; assay: Cytotoxicity MTT assay, LCMK-2 monkey kidney cells; format: cell-based
Description: Salicylalazine isolated from M. biflora was also screened for in vitro cytotoxicity using mouse hepatocytes and LCMK-2 monkey kidney cells. According to the MTT assay, salicylalazine was incubated for 24 h and the viability of the cell was identified. In this screening test, the cells were kept in RPMI 1640 medium as per the reported method. The medium used in this experiment consisted of streptomycin sulfate, NaHCO3 solution, and penicillin sodium salt, and FBS in proper proportion. The initial seeding of 8.6 × 10^3 mice hepatocytes and 7.1 × 10^3 LCMK-2 cells was indicated in 96 well plates. The cells were preserved with salicylalazine at different concentrations, and vehicle (0.2% DMSO), and hatching was performed for […] by MTT following our previously reported method.

COX-2 = biological target: T1, COX-2 (Homo sapiens, UniProt P35354); assay: In vitro COX-2 inhibition (screening kit); format: biochemical
T1 construct: purchased
T1 sequence (P35354 18-604): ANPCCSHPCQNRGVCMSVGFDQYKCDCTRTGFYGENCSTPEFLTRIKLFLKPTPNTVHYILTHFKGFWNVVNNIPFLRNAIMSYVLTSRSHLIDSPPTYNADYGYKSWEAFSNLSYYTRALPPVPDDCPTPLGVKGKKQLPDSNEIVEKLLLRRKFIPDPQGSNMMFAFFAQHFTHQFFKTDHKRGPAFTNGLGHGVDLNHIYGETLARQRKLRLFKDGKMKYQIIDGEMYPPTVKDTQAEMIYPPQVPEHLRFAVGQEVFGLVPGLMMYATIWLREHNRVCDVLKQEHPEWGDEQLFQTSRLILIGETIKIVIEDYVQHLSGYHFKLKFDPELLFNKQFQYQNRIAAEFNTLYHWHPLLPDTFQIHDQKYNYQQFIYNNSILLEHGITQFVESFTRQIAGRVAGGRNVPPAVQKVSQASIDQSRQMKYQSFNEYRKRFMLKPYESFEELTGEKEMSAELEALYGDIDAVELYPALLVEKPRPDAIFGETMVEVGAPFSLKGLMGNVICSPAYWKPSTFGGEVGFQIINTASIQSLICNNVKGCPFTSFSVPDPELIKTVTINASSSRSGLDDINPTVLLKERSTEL
Description: The in vitro inhibition of cyclooxygenases (COX-1 and COX-2) by the isolated compounds was determined using screening kits.

NCI-H226 = assay: Anticancer MTT assay, NCI-H226; format: cell-based; conditions: Homo sapiens, 24 h
Description: (§2) The MTT assay was used to assess the cytotoxicity of salicylalazine isolated from M. biflora as per the previously documented method. For the MTT assay, Gibco BRL was combined with 100 µg/mL of penicillin sodium salts, 10% FBS (Gibco), and sodium carbonate (2 mg/mL). The prepared medium was used to keep three human cancer cell lines: human hepatoma (HepG2), human A498, and renal NCI-h226 non-small cell lung). Mouse hepatocytes, including HepG2 and HepG-R, were planted in 96-well plates. The cell lines were preserved with salicylalazine (1.5–100 μM), hatched for 24 h, and then they were tracked using the MTT procedure^14. This method was used for all tested cell lines. The IC50 value of salicylalazine in different cell lines was calculated from the concentration-effect curves. The standard drug used in this experiment was paclitaxel.

HepG2 = assay: Anticancer MTT assay, HepG2; format: cell-based; conditions: Homo sapiens, 24 h
Description: as §2

## Oc1ccccc1/C=N/N=C/c1ccccc1O [Salicylalazine, salicylalazine]
[1]; dose 2.5 mg/kg i.p., 30 min
  Inclined Plane Test (%): 20.11 ± 1.45%
[1]; dose 2.5 mg/kg i.p., 60 min
  Inclined Plane Test (%): 26.23 ± 1.66%
[1]; dose 2.5 mg/kg i.p., 90 min
  Inclined Plane Test (%): 27.45 ± 1.23%
[1]; dose 5 mg/kg i.p., 30 min
  Inclined Plane Test (%): 27.34 ± 1.66%
[1]; dose 5 mg/kg i.p., 60 min
  Inclined Plane Test (%): 33.09 ± 1.60%
[1]; dose 5 mg/kg i.p., 90 min
  Inclined Plane Test (%): 34.09 ± 1.30%
[1]; dose 10 mg/kg i.p., 30 min
  Inclined Plane Test (%): 33.98 ± 1.40%
[1]; dose 10 mg/kg i.p., 60 min
  Inclined Plane Test (%): 38.08 ± 1.55%
[1]; dose 10 mg/kg i.p., 90 min
  Inclined Plane Test (%): 39.43 ± 1.28%
[1]; dose 15 mg/kg i.p., 30 min
  Inclined Plane Test (%): 44.53 ± 1.43%
[1]; dose 15 mg/kg i.p., 60 min
  Inclined Plane Test (%): 50.94 ± 1.50%
[1]; dose 15 mg/kg i.p., 90 min
  Inclined Plane Test (%): 51.52 ± 1.20%
[1]; dose 20 mg/kg i.p., 30 min
  Inclined Plane Test (%): 52.09 ± 1.30%
[1]; dose 20 mg/kg i.p., 60 min
  Inclined Plane Test (%): 59.34 ± 1.45%
[1]; dose 20 mg/kg i.p., 90 min
  Inclined Plane Test (%): 60.88 ± 1.19%
[2]; 15 mg/kg, 1 h
  Effect on histamine-induced paw edema: 78.45%
[2]; 15 mg/kg, 2 h
  Effect on histamine-induced paw edema: 74.33%
[2]; 15 mg/kg, 3 h
  Effect on histamine-induced paw edema: 58.09%
[2]; 20 mg/kg, 1 h
  Effect on histamine-induced paw edema: 90.55%
[2]; 20 mg/kg, 2 h
  Effect on histamine-induced paw edema: 93.99%
[2]; 20 mg/kg, 3 h
  Effect on histamine-induced paw edema: 86.11%
[3]
  In vitro cytotoxicity (MTT): did not exhibit any considerable cytotoxicity
other
  melting point: 215 to 218 °C
COX-2
  IC50: 9.08 ± 0.11 µM
COX-2; SI = IC50 (COX-1)/IC50 (COX-2)
  SI: 4.85
NCI-H226
  IC50: 64.98 ± 0.11 µM
HepG2
  IC50: 20.8 ± 0.38 µM
